This note sets out measurements from US9849131B2 (AUTIFONY THERAPEUTICS LIMITED, priority 2009, dated 2017).

Data set [1] has as its system parvalbumin-positive interneurons in the somatosensory cortex. Description: Firing of parvalbumin-positive interneurons in somatosensory cortex slices, in vitro (Example 90). The format is cell-based, mouse. Particulars: vs TEA alone, p<0.05.
The target of a further data set is T1, hKv3.2 (Homo sapiens, UniProt Q96PR1).
T1 construct: expressed in transfected cells; host or cells: CHO-K1
T1 sequence (Q96PR1 1-638): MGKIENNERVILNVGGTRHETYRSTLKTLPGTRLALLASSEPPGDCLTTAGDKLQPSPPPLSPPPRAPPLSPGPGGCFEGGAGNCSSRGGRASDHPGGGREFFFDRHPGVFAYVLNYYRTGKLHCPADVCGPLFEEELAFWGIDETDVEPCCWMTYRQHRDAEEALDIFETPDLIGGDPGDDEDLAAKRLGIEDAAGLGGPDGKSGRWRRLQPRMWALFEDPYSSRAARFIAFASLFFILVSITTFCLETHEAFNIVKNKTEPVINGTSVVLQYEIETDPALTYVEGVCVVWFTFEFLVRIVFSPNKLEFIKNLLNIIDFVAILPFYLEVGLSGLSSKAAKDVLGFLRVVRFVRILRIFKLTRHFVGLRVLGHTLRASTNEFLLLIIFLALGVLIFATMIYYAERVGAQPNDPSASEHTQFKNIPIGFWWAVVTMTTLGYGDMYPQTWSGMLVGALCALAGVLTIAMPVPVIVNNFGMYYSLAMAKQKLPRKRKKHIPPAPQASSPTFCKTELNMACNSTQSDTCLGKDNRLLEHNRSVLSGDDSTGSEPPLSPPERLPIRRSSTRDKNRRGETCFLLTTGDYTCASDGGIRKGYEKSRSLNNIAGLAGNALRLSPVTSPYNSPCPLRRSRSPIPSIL
The data set can be described thus: IonWorks Quattro assay, secondary analysis of activation time constant (Tauact). The format is cell-based. The note with it: classification from effect on Tauact. As for the experimental part:
A stable cell line expressing human Kv3.2 channels (hKv3.2) was created by transfecting Chinese Hamster Ovary (CHO)-K1 cells with a pCIH5-hKv3.2 vector. Cells were cultured in DMEM/F12 medium supplemented by 10% Foetal Bovine Serum, 1× non-essential amino acids (Invitrogen) and 500 ug/ml of Hygromycin-B (Invitrogen). Cells were grown and maintained at 37° C. in a humidified environment containing 5% CO2 in air.
The day of the experiment, cells were removed from the incubator and the culture medium removed. Cells were washed with 5 ml of Dulbecco's PBS (DPBS) calcium and magnesium free and detached by the addition of 3 ml Versene (Invitrogen, Italy) followed by a brief incubation at 37° C. for 5 minutes. The flask was tapped to dislodge cells and 10 ml of DPBS containing calcium and magnesium was added to prepare a cell suspension. The cell suspension was then placed into a 15 ml centrifuge tube and centrifuged for 2 min at 1200 rpm. After centrifugation, the supernatant was removed and the cell pellet re-suspended in 4 ml of DPBS containing calcium and magnesium using a 5 ml pipette to break […] up the pellet. Cell suspension volume was then corrected to give a cell concentration for the assay of approximately 3 million cells per ml.
Experiments were conducted at room temperature using IonWorks Quattro™ planar array electrophysiology technology (Molecular Devices Corp.) with PatchPlate™ PPC. Stimulation protocols and data acquisition were carried out using a microcomputer (Dell Pentium 4). Planar electrode hole resistances (Rp) were determined by applying a 10 mV voltage step across each well. These measurements were performed before cell addition. […] Following this, amphotericin-B solution was added to the intracellular face of the electrode to achieve intracellular access. Cells were held at −70 mV. Leak subtraction was conducted in all experiments by applying 50 ms hyperpolarizing (10 mV) prepulses to evoke leak currents followed by a 20 ms period at the holding potential before test pulses. From the holding potential of −70 mV, a first test pulse to −15 mV was applied for 100 ms and following a further 100 ms at −70 mV, a second pulse to 40 mV was applied for 50 ms. Cells were then maintained for a further 100 ms at −100 mV and then a voltage ramp from −100 mV to 40 mV was applied over 200 ms. In all experiments, the test pulses protocol was performed in the absence (pre-read) and presence (post-read) of the test compound. Pre- and post-reads were separated by the compound addition followed by a 3 minute incubation.
The magnitude of the effect of a compound can be determined from the time constant (Tauact) obtained from a non-linear fit, using the equation given below, of the rise in Kv3.1 or Kv3.2 currents following the start of the depolarising voltage pulse. Y=(Y0−Ymax)*exp(−K*X)+Ymax
Where: • Y0 is the current value at the start of the depolarising voltage pulse; • Ymax is the plateau current;
K is the rate constant, and Tauact is the activation time constant, which is the reciprocal of K.

The nature of data set [2]: Blood concentrations in satellite animals of the electroshock seizure study. The note with it: for unbound concentration in blood: rat. Type of data set: in vivo, rat. On the set-up: unbound concentration in blood: unit not given here. As for the experimental part:
Testing involved determining the threshold for tonic hindlimb extensor seizures using a Hugo Sachs Electronik stimulator which delivers a constant current of 0.3 second duration, 50 Hz, sinewave form, fully adjustable between 1 and 300 mA. Stimuli were delivered via corneal electrodes (Stean T O, Atkins A R, Heidbreder C A, Quinn L P, Trail B K, Upton N. (2005) Br J Pharmacol. 144(5):628-35). Seizure threshold was determined using the ‘up and down’ method of Kimball et al. (1957)(Kimball A W, Burnett W T Jr, Doherty D G. (1957) Radiat Res. 7(1):1-12). The first animal tested in each group was stimulated with a current that might be expected to be close to the threshold for induction of a seizure. If a tonic seizure was not induced, then the next animal in the group received a stimulus 5 mA higher. If a tonic seizure was induced, then the next animal received a stimulus 5 mA lower. This is repeated for all animals within the control (vehicle) group. In the case of groups treated with a test compound steps of 5 to 10 mA were used. At the end of the study, blood samples were taken for analysis of the drug concentrations in this compartment (n=4/group).
Blood concentrations of Compound 19 measured in satellite animals 2 hours after dosing were 5.3 and 9.11 μg/mL following the doses of 30 and 60 mg/kg p.o., respectively.

As to `CC[C@H]1NC(=O)N(c2ccc(Oc3ccc(C)c(OC)c3)nc2)C1=O` [Example 19, (5R)-5-ethyl-3-(6-{[4-methyl-3-(methyloxy)phenyl]oxy}-3-pyridinyl)-2,4-imidazolidinedione], the “reversal of TEA-induced lowering of maximal firing frequency” value in data set [1] (TEA (0.5 mM) plus compound at 10 μM) and in data set [1] (TEA (0.5 mM) plus compound) was “significantly reversed” in each case. Besides, the “acts as positive or negative modulator of Kv3.1 and/or Kv3.2” value at hKv3.2 is reported as “positive modulators”. Further, the concentration at 2 h in data set [2] (CD, whole blood, oral, rat satellite animals, 2 hours after 60 mg/kg p.o.) was 9110 ng/mL. Besides, the “unbound concentration in blood” value was 1.3 in data set [2] (2 hours after 30 mg/kg p.o.) and 2.21 in data set [2] (2 hours after 60 mg/kg p.o.).
